According to PubChem BioAssay (NCI):
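Tested at 5 concentrations; 48 h exposure; 96-well plates; endpoints linearly interpolated, else capped at highest concentration. Definition used: TGI = concentration required for complete inhibition of growth.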

Tests used:
Experiment in all cases: NCI anticancer screen, dose series, 48 h
DLD-1 colon = tested on: DLD-1 colon
HOP-18 NSCLC = tested on: HOP-18 NSCLC
LXFL 529 NSCLC = tested on: LXFL 529 NSCLC
M19-MEL melanoma = tested on: M19-MEL melanoma
MDA-MB-435 = tested on: MDA-MB-435
RXF-631 renal = tested on: RXF-631 renal
SNB-78 CNS = tested on: SNB-78 CNS
XF 498 CNS = tested on: XF 498 CNS

Compound: CN(C)CC1CCCC1=O (stereo not drawn)
- TGI (DLD-1 colon): 1030 nM
- TGI (HOP-18 NSCLC): 3160 nM
- TGI (LXFL 529 NSCLC): 1400 nM
- TGI (M19-MEL melanoma): 2330 nM
- TGI (MDA-MB-435): 8770 nM
- TGI (RXF-631 renal): 377 nM
- TGI (SNB-78 CNS): 6120 nM
- TGI (XF 498 CNS): 2110 nM
